In US20160259918A1, “Computational Approach for Identifying a Combination of Two Drugs” (ALACRIS THERANOSTICS GMBH, priority 2013, published 2016):
pIC50: −log10 of the molar value. Where two headings read alike, the source gives them in different places.

Test system: cell line HS695T
Test: Cell viability via Trypan blue staining in cell culture experiments
Assay type: cell-based
Conditions: Homo sapiens, Hs 695T
Experimental: Cell lines and pharmacological characterization. Cell line HS695T (CLS) was cultured in DMEM (4 mM L-glutamine, 4.5 g/l glucose, Invitrogen) with 10% fetal bovine serum (Biochrom) and maintained at 37° C. under 5% CO2 atmosphere. The cells were dispensed as triplicates into a 6-well-plate-formate with a concentration of 5×10^5 per well 24 hours prior to drug treatment. Afterwards medium was replaced with a final drug concentration range of 2.5 nM to 8 μM by 3.16-fold dilutions (eight-dose response) of Sunitinib and PI103 as single treatment HS695T for 72 and 96 hours. […] Compounds (Selleckchem) were diluted in DMSO. The final DMSO concentration for the experiments was under 0.4%. Cell viability was determined via Trypan blue staining in duplicates for each well. 100 μl of cells were incubated with an equal volume of 0.5% Trypan blue for 2-5 minutes (in 0.9% sodium chloride) and counted using a Neubauer haemocytometer chamber and a light microscope. The means of independent cell counts were taken for analysis.
Predicted growth inhibition curves were compared to measured growth inhibition curves as previously described.

Row | SMILES | pIC50 (read-out: IC50 values determined by cell culture experiments) | pIC50 (read-out: sensitivity classification according to IC50 determined by cell culture experiments) | pIC50 (HS695T, read-out: sensitivity classification according to IC50 determined by cell culture experiments) | pIC50 (HS695T, single treatment, 2.5 nM to 8 μM, 72 and 96 hours, Trypan blue cell counts, read-out: IC50 values determined by cell culture experiments)
1 | Oc1cccc(-c2nc(N3CCOCC3)c3oc4ncccc4c3n2)c1 [PI103] | 6.08 | > 5.70 |  | 
2 | CCN(CC)CCNC(=O)c1c(C)[nH]c(/C=C2\C(=O)Nc3ccc(F)cc32)c1C [Sunitinib] |  |  | < 5.70 | 5.33
